According to patent publication US6153592A, “Enhancing the bioavailability of proteolytically labile therapeutic agents” (Port Systems, LLC, priority 1994, dated 2000):

How the values were obtained:
[1] = test system: intestinal aminopeptidases; test: Protection against degradation by aminopeptidase in vivo: YdAGFdL bioavailability after ileal dosing; set-up: species or system rats
Method: The pentapeptide enkephalin analogue D-AJa-D-Leu-enkephalin (YdAGFdL) (1.0 mg) was directly ileally dosed to chronically ileally fistulated rats. Radiolabeled YdAGFdL (1.12 microgram) was dosed with each of four protecting agents: (1) decanted soy flour, <1K MW; (2) decanted and ultrafitered soy flour, 1K-30K MW; (3) pepsin-treated (FMC ACTI-MOD) soy flour, <30K MW; (4) the potent aminopeptidase inhibitor amastatin (positive control). Blood was collected from a jugular vein cannula at various times post-dosing, and intact YdAGFdL was quantified by a radiometric thin layer chromatography (TLC) method utilizing reverse phase KC-18 TLC plates (Whatman Co.). The TLC plates were developed with 30:701 -propanol/0.1 M phosphate buffer (pH 4.1).

[2] = in vivo, cited from earlier work

Row | Compound | % YdAGFdL Bioavailability ([1]; protecting agent 1 mg, ileally fistulated rats) | protection against degradation of YdAGFdL by intestinal aminopeptidases (in words) ([1]; rats) | bioavailability following oral administration ([2]; po) | bioavailability following vaginal administration [2]
1 | CC(C)C[C@@H](N)[C@H](O)C(=O)N[C@H](C(=O)N[C@H](C(=O)N[C@@H](CC(=O)O)C(=O)O)C(C)C)C(C)C [Amastatin] | 8.76 ± 4.47% | effective |  | 
2 | CCNC(=O)[C@@H]1CCCN1C(=O)[C@H](CCCNC(=N)N)NC(=O)[C@H](CC(C)C)NC(=O)[C@@H](CC(C)C)NC(=O)[C@H](Cc1ccc(O)cc1)NC(=O)[C@H](CO)NC(=O)[C@H](Cc1c[nH]c2ccccc12)NC(=O)[C@H](Cc1c[nH]cn1)NC(=O)[C@@H]1CCC(=O)N1 [leuprolide] |  |  | 0.05% | 38%
